# Laboratory results reported in patent US20250171423A1, “PHARMACEUTICAL COMPOUNDS FOR THE TREATMENT OF COMPLEMENT MEDIATED DISORDERS” (Achillion Pharmaceuticals, Inc., priority 2020, published 2025).
# Biological target: T1, Human complement C1s enzyme (Homo sapiens, UniProt P09871)
# T1 construct: purified from human serum, Complement Technology, Inc; purchased Complement Technology, Inc; host or cells: human serum
# T1 sequence (P09871 438-688 limits assumed): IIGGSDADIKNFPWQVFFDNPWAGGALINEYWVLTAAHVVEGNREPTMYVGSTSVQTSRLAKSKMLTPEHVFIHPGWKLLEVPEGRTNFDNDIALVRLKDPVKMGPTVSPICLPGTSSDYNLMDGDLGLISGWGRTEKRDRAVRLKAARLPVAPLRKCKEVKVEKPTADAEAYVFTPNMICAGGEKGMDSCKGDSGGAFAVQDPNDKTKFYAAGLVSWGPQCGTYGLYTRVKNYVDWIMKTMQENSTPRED
# T1 sequence (P09871 16-437 partner limits assumed): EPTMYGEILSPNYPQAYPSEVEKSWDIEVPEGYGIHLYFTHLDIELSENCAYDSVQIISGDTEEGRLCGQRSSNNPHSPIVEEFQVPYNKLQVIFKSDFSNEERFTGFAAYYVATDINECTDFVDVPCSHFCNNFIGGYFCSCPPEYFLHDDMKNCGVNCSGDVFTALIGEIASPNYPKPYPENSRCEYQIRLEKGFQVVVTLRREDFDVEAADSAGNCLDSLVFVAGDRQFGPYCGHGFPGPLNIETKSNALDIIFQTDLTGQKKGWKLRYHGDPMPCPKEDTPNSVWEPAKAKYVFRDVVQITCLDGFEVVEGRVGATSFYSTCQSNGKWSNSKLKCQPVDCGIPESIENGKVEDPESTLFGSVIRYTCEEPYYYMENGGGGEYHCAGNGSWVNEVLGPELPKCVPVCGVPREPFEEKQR
# Experiment: Human C1s Enzyme Assay
# Assay type: biochemical
# Conditions: human C1s 1.16 nM, 5 min preincubation, substrate Z-L-Lys-SBzl 100 μM, A405; read-out: C1s Protease Activity
# Method in brief: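 IC50 values were fitted by nonlinear regression to rates measured as A405 every 30 s for 30 min. The thioester substrate Z-L-Lys-SBzl and Ellman's reagent were each at 100 μM. Serum-derived C1s at 1.16 nM final had 5 min of room-temperature preincubation with compound (pH 7.5 Tris buffer, 1 M NaCl).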
row,SMILES,IC50 [µM]
1,"C[C@@H](NC(=O)[C@@H]1C[C@@]2(CN1C(=O)CNC(=O)CCCOc1ccccc1)CC2(F)F)c1cc(C(=N)N)cs1 [Compound 105, (3S,6S)-N-((R)-1-(4-carbamimidoylthiophen-2-yl)ethyl)-1,1-difluoro-5-((4-phenoxy-butanoyl)glycyl)-5-azaspiro[2.4]heptane-6-carboxamide]",0.1 to 1
2,"C[C@@H](NC(=O)[C@@H]1C[C@]2(C)C[C@@H]2N1C(=O)CNC(=O)CCCOc1ccc(F)cc1)c1cc(C(=N)N)cs1 [Compound 121, (1S,3S,5S)-N-((R)-1-(4-carbamimidoylthiophen-2-yl)ethyl)-2-((4-(4-fluorophenoxy)butanoyl)glycyl)-5-methyl-2-azabicyclo[3.1.0]hexane-3-carboxamide]",0.1 to 1
3,"C[C@@]12C[C@@H]1N(C(=O)CNC(=O)c1ccc(Oc3ccccc3)cc1)[C@H](C(=O)NCc1cc3c(s1)CCN=C3N)C2 [Compound 182, (1S,3S,5S)-N-((4-amino-6,7-dihydrothieno[3,2-c]pyridin-2-yl)methyl)-5-methyl-2-((4-phenoxybenzoyl)glycyl)-2-azabicyclo[3.1.0]hexane-3-carboxamide]",> 1
4,"C[C@@]12C[C@@H]1N(C(=O)CNC(=O)c1ccc(Oc3ccccc3)cc1)[C@H](C(=O)N(O)Cc1cc(C(=N)N)cs1)C2 [Compound 127, (1S,3S,5S)-N-((4-carbamimidoylthiophen-2-yl)methyl)-N-hydroxy-5-methyl-2-((4-phenoxybenzoyl)glycyl)-2-azabicyclo[3.1.0]hexane-3-carboxamide]",> 1
5,"Cc1sc(CNC(=O)[C@@H]2C[C@]3(C)C[C@@H]3N2C(=O)CNC(=O)CCCOc2ccccc2)cc1C(=N)N [Compound 216, (1S,3S,5S)-N-((4-carbamimidoyl-5-methylthiophen-2-yl)methyl)-5-methyl-2-((4-phenoxybutanoyl)glycyl)-2-azabicyclo[3.1.0]hexane-3-carboxamide]",> 1
6,"N=C(N)c1csc([C@H](NC(=O)[C@@H]2C[C@@H](OC(F)F)CN2C(=O)CNC(=O)c2ccc(Oc3ccccc3)cc2)C2CCCC2)c1 [Compound 193, (2S,4R)-N-((R)-(4-carbamimidoylthiophen-2-yl)(cyclopentyl)methyl)-4-(difluoromethoxy)-1-((4-phenoxybenzoyl)glycyl)pyrrolidine-2-carboxamide]",> 1
7,"C[C@@]12C[C@@H]1N(C(=O)CNC(=O)c1ccc(Oc3ccccc3)cc1)[C@H](C(=O)NCc1ccc3onc(N)c3c1)C2 [Compound 67, (1S,3S,5S)-N-((3-aminobenzo[d]isoxazol-5-yl)methyl)-5-methyl-2-((4-phenoxy-benzoyl)glycyl)-2-azabicyclo[3.1.0]hexane-3-carboxamide]",> 1
8,"C[C@@]12C[C@@H]1N(CCNC(=O)CCCOc1ccccc1)[C@H](C(=O)NCc1cc(C(=N)N)cs1)C2 [Compound 134, (1S,3S,5S)-N-((4-carbamimidoylthiophen-2-yl)methyl)-5-methyl-2-(2-(4-phenoxybutanamido)ethyl)-2-azabicyclo[3.1.0]hexane-3-carboxamide]",> 1
9,"N=C(N)c1csc([C@H](NC(=O)[C@@H]2C[C@@H](OC(F)F)CN2C(=O)CNC(=O)c2ccc(Oc3ccccc3)cc2)c2ccccc2)c1 [Compound 200, (2S,4R)-N-((R)-(4-carbamimidoylthiophen-2-yl)(phenyl)methyl)-4-(difluoromethoxy)-1-((4-phenoxybenzoyl)glycyl)pyrrolidine-2-carboxamide]",> 1

# The remaining lines, values ahead:
row,IC50 [µM],SMILES
1,< 0.1,"C[C@@]12C[C@@H]1N(C(=O)CNC(=O)c1ccccc1Oc1ccccc1)[C@H](C(=O)NCc1cc(C(=N)N)cs1)C2 [Compound 145, (1S,3S,5S)-N-((4-carbamimidoylthiophen-2-yl)methyl)-5-methyl-2-((2-phenoxybenzoyl)glycyl)-2-azabicyclo[3.1.0]hexane-3-carboxamide]"
2,< 0.1,"C[C@@H](NC(=O)[C@@H]1CC2(CN1C(=O)CNC(=O)CCCOc1ccc(F)cc1)OCCO2)c1cc(C(=N)N)cs1 [Compound 104, (S)-N-((R)-1-(4-carbamimidoylthiophen-2-yl)ethyl)-7-((4-(4-fluorophenoxy)butanoyl)-glycyl)-1,4-dioxa-7-azaspiro[4.4]nonane-8-carboxamide]"
3,< 0.1,"C[C@@H](NC(=O)[C@@H]1CC2(CC2)CN1C(=O)CNC(=O)CCCOc1ccccc1)c1cc(C(=N)N)cs1 [Compound 116, (6S)-N-[(1R)-1-(4-carbamimidoylthiophen-2-yl)ethyl]-5-[2-(4-phenoxybutanamido)acetyl]-5-azaspiro[2.4]heptane-6-carboxamide]"
4,< 0.1,"N=C(N)c1csc(CNC(=O)[C@@H]2C[C@H](C3CCCC3)CN2C(=O)CNC(=O)c2ccc(Oc3ccccc3)cc2)c1 [Compound 260, (2S,4R)-N-((4-carbamimidoylthiophen-2-yl)methyl)-4-cyclopentyl-1-((4-phenoxybenzoyl)glycyl) pyrrolidine-2-carboxamide]"
5,< 0.1,"C[C@@H](NC(=O)[C@@H]1CC2(CCCC2)CN1C(=O)CNC(=O)CCCOc1ccccc1)c1cc(C(=N)N)cs1 [Compound 114, (S)-N-((R)-1-(4-carbamimidoylthiophen-2-yl)ethyl)-2-((4-phenoxybutanoyl)glycyl)-2-azaspiro[4.4]nonane-3-carboxamide]"
6,< 0.1,"CC1(c2ccc(OCCCC(=O)NCC(=O)N3[C@H]4C[C@@]4(C)C[C@H]3C(=O)NCc3cc(C(=N)N)cs3)cc2)COC1 [Compound 140, (1S,3S,5S)-N-((4-carbamimidoylthiophen-2-yl)methyl)-5-methyl-2-((4-(4-(3-methyloxetan-3-yl)phenoxy)butanoyl)glycyl)-2-azabicyclo[3.1.0]hexane-3-carboxamide]"
7,< 0.1,"N=C(N)c1csc(CNC(=O)[C@@H]2C[C@@H](Cc3ccc(C(F)(F)F)cc3)CN2C(=O)CNC(=O)c2ccc(Oc3ccccc3)cc2)c1 [Compound 17, (2S,4R)-N-((4-carbamimidoylthiophen-2-yl)methyl)-1-((4-phenoxybenzoyl)glycyl)-4-(4-(trifluoromethyl)benzyl)pyrrolidine-2-carboxamide]"
8,< 0.1,"C[C@@H](NC(=O)[C@@H]1C[C@]2(C)C[C@@H]2N1C(=O)CNC(=O)CCCOc1ccccc1)c1cc(C(=N)N)cs1 [Compound 122, (1S,3S,5S)-N-((R)-1-(4-carbamimidoylthiophen-2-yl)ethyl)-5-methyl-2-((4-phenoxy-butanoyl)glycyl)-2-azabicyclo[3.1.0]hexane-3-carboxamide]"
9,< 0.1,"N=C(N)c1csc(CNC(=O)[C@@H]2C[C@@H](C(F)(F)F)CN2C(=O)CNC(=O)CCCOc2ccccc2)c1 [Compound 60, (2S,4R)-N-((4-carbamimidoylthiophen-2-yl)methyl)-1-((4-phenoxybutanoyl)glycyl)-4-(trifluoromethyl)pyrrolidine-2-carboxamide]"
10,< 0.1,"N=C(N)c1csc(CNC(=O)[C@@H]2C[C@@]3(CN2C(=O)CNC(=O)c2ccc(Oc4ccccc4)cc2)CC3(F)F)c1 [Compound 21, (3S,6S)-N-((4-carbamimidoylthiophen-2-yl)methyl)-1,1-difluoro-5-((4-phenoxy-benzoyl)glycyl)-5-azaspiro[2.4]heptane-6-carboxamide]"
11,< 0.1,"C[C@@]12C[C@@H]1N(C(=O)CN1CCc3cc(Oc4ccccc4)ccc3C1=O)[C@H](C(=O)NCc1cc(C(=N)N)cs1)C2 [Compound 161, (1S,3S,5S)-N-((4-carbamimidoylthiophen-2-yl)methyl)-5-methyl-2-(2-(1-oxo-6-phenoxy-3,4-dihydroisoquinolin-2(1H)-yl)acetyl)-2-azabicyclo[3.1.0]hexane-3-carboxamide]"
12,< 0.1,"COC[C@@]1(F)C[C@@H](C(=O)N[C@H](C)c2cc(C(=N)N)cs2)N(C(=O)CNC(=O)c2ccc(C(=O)c3ccccc3)cc2)C1 [Compound 218, (2S,4R)-1-((4-benzoylbenzoyl)glycyl)-N-((R)-1-(4-carbamimidoylthiophen-2-yl)ethyl)-4-fluoro-4-(methoxymethyl)pyrrolidine-2-carboxamide]"
13,< 0.1,"C[C@@H](NC(=O)[C@@H]1C[C@]2(C)C[C@@H]2N1C(=O)CNC(=O)[C@H](CCOc1ccccc1)NC(=O)CCC(=O)O)c1cc(C(=N)N)cs1 [Compound 184, 4-(((S)-1-((2-((1S,3S,5S)-3-(((R)-1-(4-carbamimidoylthiophen-2-yl)ethyl)carbamoyl)-5-methyl-2-azabicyclo[3.1.0]hexan-2-yl)-2-oxoethyl)amino)-1-oxo-4-phenoxybutan-2-yl)amino)-4-oxobutanoic acid]"
14,< 0.1,"Cc1cccc(O[C@@H]2C[C@@H](C(=O)N[C@H](C)c3cc(C(=N)N)cs3)N(C(=O)CNC(=O)CCCOc3ccccc3)C2)c1 [Compound 118, (2S,4R)-N-((R)-1-(4-carbamimidoylthiophen-2-yl)ethyl)-1-((4-phenoxybutanoyl)-glycyl)-4-(m-tolyloxy)pyrrolidine-2-carboxamide]"
